Experimental data: patent US5015661A, “Chromanes and their pharmaceutical compositions and methods” (Hoffmann-La Roche Inc., priority 1989, dated 1991)

These compounds were tested against superoxide-dependent, iron-promoted lipid peroxidation of native rat heart cardiac lipid liposomes (assay: Lipid peroxidation inhibition (in vitro testing of antiperoxidative agents, ANTI-OX), hypoxanthine-xanthine oxidase-Fe3+.ADP, rat cardiac liposomes, MDA equivalents). Conditions: 60 min, 37° C., screened at 1.0 μM, IC50 determined if inhibition ≥ 50%, read-out: ANTI-OX IC-50.
Assay type: biochemical
Procedure: The test system employs hypoxanthine-xanthine oxidase (XO)-Fe^3+. ADP as the free radical generator and purified, native rat-heart membrane phosphoglyceride in Hepes-KCl buffer, pH 7.4, as the substrate. Inhibition of superoxide-dependent, iron-promoted lipid peroxidation in the linear reaction phase (after 1 hour of reaction) is measured as the net formation of thiobarbituric acid (TBA)-reactive material. In this system, the TBA-reactive material, isolated by HPLC, is exclusively (>95%) malondialdehyde (MDA), a fragmentation end-product arising from fatty acyl hydroperoxides and cyclic endoperoxides. […]
a) Isolation and purification of Rat Cardiac Lipid
Conscious male Sprague-Dawley rats (~275g) maintained on a normal rodent diet were decapitated. The hearts were rapidly removed and perfused via the aorta with ice-cold 10 mM Hepes buffer, pH 7.4. The aorta and atria were removed, and the ventricular tissue was blotted and weighed (wet weight). The hearts were minced on ice with scissors and finally homogenized (100 mg tissue/ml ice-cold buffer) for 15 seconds (3×5 seconds) with a Tekmar Tissumizer at "maximal" setting. The homogenate was filtered through 4-ply cheesecloth, and homogenate lipids were extracted and purified by a modified Bligh-Dyer procedure (M.D. Marshall and M. Kates, Biochem. Biophys. Acta 260, 558 (1972). The cardiac lipids were stored in CHCl3 under nitrogen at -20° C. […]
b) Preparation of Cardiac Liposomes
Liposomes were prepared from extracted and purified, native rat heart cardiac lipid and were used as substrate for free-radical attack. Cardiac lipid (in CHCl3) was placed in a glass flask and evaporated to dryness under nitrogen at room temperature; the flask was gently rotated during evaporation to yield a thin, dry lipid film. The lipid was taken up in 10 mM Hepes-0.145M KCl, pH 7.4, and was resuspended by indirect an aerobic sonification for 15 minutes at room temperature. The liposome suspension was used immediately. […]
c) preparation of Fe^3+ -ADP Chelate
A chelate was formed in Hepes-KCl buffer between Fe^3+ (1.0mM FeCl3, final concentration) and ADP (10mM, final concentration) at pH 7.4 with stirring at room temperature. Chelation was allowed to proceed for 90 minutes prior to use. The chelate was prepared fresh for each days experiments to ensure iron solubility, effective chelation, and valence state. […]
d) Thiobarbituric Acid Reaction or Determination of Malondialdehvde Equivalents Malondialdehyde (MDA) equivalents were measured as thiobarbituric acid (TBA)-reactive material by the following modification of published methods. The reaction mixture. prepared fresh daily, contained water: BHT ([…] BHT in absolute ethanol): TBA (1.5% TBA in 0.2M Tris, pH 7.0) in the volume ratio 1:1:5. To each 1.0 ml of peroxidation reaction assayed (see below), 0.35 ml reaction mixture was added. After thorough mixing, the tubes were incubated in an 80° C. shaking water bath for 30 minutes. After this time, the tubes were plunged into an ice water bath, and the reaction was immediately stopped with 0.5 ml ice-cold 91% TCA followed by 2.0 ml CHCl3 After centrifugation for 30 minutes at 2000 rpm in a Sorval HL-8 rotor (4° C.), the absorbance of the washed, pink upper phase was read at 532 nm. A standard curve (0.8-40.0 nmol MDA) was run with every assay. For each curve, MDA was freshly prepared by acidification of 1,1,3,3 -tetraethoxypropane with 75% TCA-2.3N HCl (0.15 ml acid mixture with 1.0 ml suitably diluted tetraethoxypropane). Computer-assisted regression analysis of the standard curve was used to quantify the molar amounts of MDA equivalents in the experimental samples. […]
e) Lipid peroxidation Reaction
Cardiac liposomes were subjected to superoxidedependent. iron-promoted peroxidation in glass vessels to avoid the well-known antioxidant effects of many common polymerizing agents used to fabricate plastic labware. […]

Row | SMILES | IC50 [nM]
1 | Cc1c(C)c2c(c(C)c1O)CCC(C)(C#Cc1ccc(F)c(F)c1)O2 (racemic) [Example 36, rac-2-[(3,4-Difluorophenyl)ethynyl]-3,4-dihydro-2,5,7,8-tetramethyl-2H-1-benzopyran-6-ol] | > 1000
2 | Cc1c(C)c2c(c(C)c1O)CCC(C)(C#Cc1cccc3ccccc13)O2 (racemic) [Example 39, rac-3,4-Dihydro-2,5,7,8-tetramethyl-2-(1-naphthyl)ethynyl-2H-1-benzopyran-6-ol] | > 1000
3 | Cc1c(C)c2c(c(C)c1O)CCC(C)(C#Cc1ccccc1N)O2 (racemic) [Example 40, rac-2-[(2-Aminophenyl)ethynyl]-3,4-dihydro-2,5,7,8-tetramethyl-2H-1-benzopyran-6-ol] | > 1000
4 | COc1ccc(CCC2(C)CCc3c(C)c(O)c(C)c(C)c3O2)cc1OC(C)=O (racemic) [Example 60, rac-2-{2-[3-(Acetyloxy)-4-methoxyphenyl]ethyl}-3,4-dihydro-2,5,7,8-tetramethyl-2H-1-benzopyran-6ol] | > 1000
5 | COc1cccc(CCC2(C)CCc3c(C)c(O)c(C)c(C)c3O2)c1 (racemic) [Example 62, rac-3,4-Dihydro-2-[2-(3-methoxyphenyl)ethyl]-2,5,7,8-tetramethyl-2H-1-benzopyran-6-ol] | > 1000
6 | COC(=O)c1cc(CCC2(C)CCc3c(C)c(O)c(C)c(C)c3O2)ccc1O (racemic) [Example 63, rac-5-[2-(3,4-Dihydro-6-hydroxy-2,5,7,8-tetramethyl-2H-1-benzopyran-2-yl)ethyl]-2-hydroxybenzoic acid methyl ester] | > 1000
7 | Cc1c(C)c2c(c(C)c1O)CCC(C)(CCc1ccc(-c3cccnc3)cc1)O2 (racemic) [Example 64, rac-3,4-Dihydro-2,5,7,8-tetramethyl-2-{2-[4-(3-pyridinyl)-phenyl]ethyl}-2H-1-benzopyran-6-ol] | > 1000
8 | Cc1c(C)c2c(c(C)c1O)CCC(C)(CCc1ccc(-c3ccccn3)s1)O2 (racemic) [Example 65, rac-3,4-Dihydro-2,5,7,8-tetramethyl-2-{2-[5-(2-pyridinyl)-2-thienyl]ethyl}-2H-1-benzopyran-6ol] | > 1000
9 | CCCCc1ccc(CCC2(C)CCc3c(C)c(O)c(C)c(C)c3O2)s1 (racemic) [Example 66, rac-2-[2-(5-Butyl-2-thienyl)ethyl]-3,4-dihydro-2,5,7,8-tetramethyl-2H-1-benzopyran-6-ol] | > 1000

More lines, now with the values ahead:

Row | IC50 [nM] | SMILES
10 | 650 | Cc1c(C)c2c(c(C)c1O)CCC(C)(C#Cc1ccccc1)O2 (racemic) [Example 1, rac-3,4-Dihydro-2,5,7,8-tetramethyl-2-(phenylethynyl)-2H-1-benzopyran-6-ol]
11 | > 1000 | COc1ccc(C#CC2(C)CCc3c(C)c(O)c(C)c(C)c3O2)cc1OC(C)=O (racemic) [Example 20, rac-2-[(3-Acetyloxy-4-methoxyphenyl)ethynyl]-3.4-dihydro-2,5,7,8-tetramethyl-2H-1-benzopyran-6-ol]
12 | > 1000 | COc1cccc(C#CC2(C)CCc3c(C)c(O)c(C)c(C)c3O2)c1 (racemic) [Example 22, rac-3,4-Dihydro-2-(3-methoxyphenyl)ethynyl)-2,5,7,8-tetra-methyl-2H-1-benzopyran-6-ol]
13 | 900 | COC(=O)c1cc(C#CC2(C)CCc3c(C)c(O)c(C)c(C)c3O2)ccc1O (racemic) [Example 23, rac-5-(3,4-Dihydro-6-hydroxy-2,5,7,8-tetramethyl-2H-1-benzopyran-2-yl)ethynyl]-2-hydroxybenzoic acid methyl ester]
14 | 800 | Cc1c(C)c2c(c(C)c1O)CCC(C)(C#Cc1ccc(-c3cccnc3)cc1)O2 (racemic) [Example 24, rac-3,4-Dihydro-2,5,7,8-tetramethyl-2-{[4-(3-pyridinyl)-phenyl]ethynyl}-2H-1-benzopyran-6-ol]
15 | 550 | Cc1c(C)c2c(c(C)c1O)CCC(C)(C#Cc1ccc(-c3ccccn3)s1)O2 (racemic) [Example 26, rac-3,4-Dihydro-2,5,7,8-tetramethyl-2-{[5-(2-pyridinyl)-2-thienyl]ethynyl}-2H-1-benzopyran-6-ol]
16 | > 1000 | COc1cc(C=O)cc(C#CC2(C)CCc3c(C)c(O)c(C)c(C)c3O2)c1O (racemic) [Example 28, rac-3-[(3,4-Dihydro-6-hydroxy-2,5,7,8-tetramethyl-2H-1-benzopyran-2-yl)ethynyl]-4-hydroxy-5-methoxybenzaldehyde]
17 | > 1000 | COc1cc(CO)cc(C#CC2(C)CCc3c(C)c(O)c(C)c(C)c3O2)c1O (racemic) [Example 29, rac-3-[(3,4-Dihydro-6-hydroxy-2,5,7,8-tetramethyl-2H-1-benzopyran-2-yl)ethynyl]-4-hydroxy-5-methoxybenzenemethanol]
18 | > 1000 | COc1cc(C=NO)cc(C#CC2(C)CCc3c(C)c(O)c(C)c(C)c3O2)c1O (racemic) [Example 30, rac-3-[(3,4-Dihydro-6-hydroxy-2,5,7,8-tetramethyl-2H-1-benzopyran-2yl)ethynyl]-4-hydroxy-5-methoxybenzaldehydeoxime]
19 | 850 | Cc1c(C)c2c(c(C)c1O)CCC(C)(C#Cc1cnc3ccccc3c1)O2 (racemic) [Example 33, rac-3,4-Dihydro-2,5,7,8-tetramethyl-2-(3-quinolinylethynyl)-2H-1-benzopyran-6-ol]
20 | > 1000 | Cc1c(C)c2c(c(C)c1O)CCC(C)(C#Cc1cncc3ccccc13)O2 (racemic) [Example 34, rac-3,4-Dihydro-2-[(4-isoquinolinyl)ethynyl]-2,5,7,8-tetramethyl-2H-1-benzopyran-6-ol]
21 | 700 | Cc1c(C)c2c(c(C)c1O)CCC(C)(C#Cc1ccccc1O)O2 (racemic) [Example 50 (2-HO-phenyl), rac-3,4-Dihydro-2-[(2-hydroxyphenyl)ethynyl]-2,5,7,8-tetramethyl-2H-1-benzopyran-6-ol]
22 | 850 | COc1cc(CO)cc2cc(C3(C)CCc4c(C)c(O)c(C)c(C)c4O3)oc12 (racemic) [Example 55, rac-2-(3,4-Dihydro-6-hydroxy-2,5,7,8-tetramethyl-2H-1-benzopyran-2-yl)-7-methoxybenzofuran-5-methanol]
23 | 750 | Cc1c(C)c2c(c(C)c1O)CCC(C)(C#Cc1ccc3c(c1)N(C)C(=O)CO3)O2 (stereo not drawn) [Example 48]

Each compound was assayed on arachidonic acid-induced mouse ear edema (assay: Mouse ear edema test (in vivo), arachidonic acid-induced). Conditions: 1 mg topical, CD-1 male mice, 0.5 mg arachidonic acid 0.5 or 4 hours later, ear biopsy weight after 1 hour, read-out: EAR EDEMA % INHIB. 1 mg.
Procedure: MOUSE EAR EDEMA TEST (IN VIVO)
In this animal model system, the application of arachidonic acid to the ear results in the biosynthesis of the metabolic products […]-6,8,11,14-eicosatetraenoic acid (5-HETE), leukotriene B4 (LTB4), leukotriene C4 (LTC4), […]-5,8,10,14-eicosatetraenoic acid (12-HETE), and prostaglandin E2 (PGE2) at the site of application, followed by the influx of neutrophils into the site and the rapid development of edema within 30 to 60 minutes (See, for instance, Young, Wagner and Spries, "Tachyphylaxis in 12-O-Tetradecanoylphorbol Acetate And Arachidonic Acid-Induced Ear Edma," J. Invest. Dermatol. 80:48 (1983) and Hames, Opas and Bonney, "Arachidonic Acid MetaboIites in Mouse Ear Edma" Advances in Inflammation Research. 11:57 (1986).
CD-1 male mice weighing 15 to 25 g were employed, and they were designated as follows: (1) Control Group, in which no arachidonic acid or test compound was to be applied, (2) Arachidonic Acid-Treated Group, in which no test compound was to be applied, and (3) Treated Group, in which the test compound was to be applied first, followed by the application of arachidonic acid.
In the case of the Group (3) animals, the test compound, dissolved in acetone, was applied to the dorsal surface of the right ear of the mouse with a 25-microliter pipette or, with the dose of the test compound being varied. After 0.5 hours in some cases and 4 hours in others, the arachidonic acid was topically applied in the same manner as above to the pretreated ear areas. In each case of arachidonic acid application, an amount of 0.5 mg dissolved in 25 microliters of acetone was used. After 1 hour, the mice were sacrificed by carbon dioxide inhalation. A 6mm-diameter standard biopsy punch was used to obtain a uniform tissue sample from the ear of each mouse so treated, and the tissue samples were weighted to the nearest 0.1 mg. The percent inhibition of ear edema formation was calculated as follows: [formula]

Row | SMILES | inhibition in vivo at 1 mg [%]
24 | Cc1c(C)c2c(c(C)c1O)CCC(C)(C#Cc1ccccc1)O2 (racemic) [Example 1, rac-3,4-Dihydro-2,5,7,8-tetramethyl-2-(phenylethynyl)-2H-1-benzopyran-6-ol] | 45
